The values that follow are results of earlier work, collected in patent US9814623B2, “Antimicrobial gas impregnating devices and methods” (ENOX (ISRAEL) LTD., priority 2007, dated 2017).

One series relates to Candida albicans. To be noted: exogenous gNO at 200 ppm for extended periods of time.
In series [1] the test system is cultured human dermal fibroblasts. To be noted: exogenous gNO at 200 ppm for extended periods of time.
The test system of another series is Staphylococcus aureus. As to conditions: exogenous gNO at 200 ppm for extended periods of time.
In another series the test system is Pseudomonas aeruginosa. To be noted: exogenous gNO at 200 ppm for extended periods of time.
Series [2] concerns nosocomial pneumonia caused by microbial pathogens such as S. aureus and P. aeruginosa. To be noted: exogenous gNO at 200 ppm.
The subject of another series is Group B Streptococcus. As to conditions: exogenous gNO at 200 ppm for extended periods of time.
The subject of a further series is Escherichia coli. To be noted: exogenous gNO at 200 ppm for extended periods of time.
For series [3], the system named is infections after tympanostomy tube placement. To be noted: otic drops after tympanostomy tube placement.

For the compound `[N]=O` [gNO, nitric oxide], the “growth of Candida albicans” value in the series on Candida albicans is “inhibited and prevented the growth”. Also, the “cytotoxic effects on cultured human dermal fibroblasts” value in series [1] is “without any cytotoxic effects”. The “growth of Staphylococcus aureus” value with Staphylococcus aureus is “inhibited and prevented the growth”. In addition, the “growth of Pseudomonas aeruginosa” value in the series on Pseudomonas aeruginosa was “inhibited and prevented the growth”. Moreover, in series [2], the “time to clear nosocomial pneumonia pathogens” value is on record as “about 6 hours”. Further, in the series with Group B Streptococcus, the “growth of Group B Streptococcus” value was “inhibited and prevented the growth”. Also, the “growth of Escherichia coli” value with Escherichia coli is “inhibited and prevented the growth”.
For the compound Gentamicin, the incidence of infection result in series [3] is recorded as “significantly reduced”.
